The values that follow come from US8207402B2, “Nucleotide sequences encoding enzymes in biosynthesis of dihydroartemisinic acid” (National Research Council of Canada, priority 2006, dated 2012).

In assay [1] the target is T1, recombinant His-tagged AaALDH1 (Artemisia annua, UniProt C5I9X1).
T1 construct: made in house; host or cells: E. coli BL21(DE3)
Nature of the assay: In vitro cell-free assay of recombinant His-tagged AaALDH1, GC/MS. The class given is biochemical. The conditions noted are these: E. coli cell-free extract, 1 mM NADP, pH 8.5, 30 minutes at 30° C. As to the method:
(§1) The plasmid pKT032 or pKT041 was introduced into E. coli strain BL21(DE3) (Novagen) using heat shock at 42° C. The GUS gene (Invitrogen) was cloned into pDEST17 to replace the ccdB gene and the construct pDEST-GUS introduced into the E. coli strain BL21(DE3) was used as a control. Transformants were grown on Luria Broth (LB) and selected on ampicillin (100 μg/mL) at 37° C. for 24 hours. A single colony containing pKT032 or pKT041 was used to inoculate 5 mL of LB liquid medium with ampicillin (LBA) and grown at 37° C. overnight with shaking. The overnight culture was used to inoculate 250 mL of LBA liquid medium and grown at 37° C. with shaking to an OD600 of 0.6 per mL followed by induction with 1 mM IPTG and grown at 30° C. overnight with shaking. Cells were pelleted at 2,000 g at 4° C. for 10 minutes. The pelleted cells were resuspended in 6 mL of lysis buffer consisting of 50 mM sodium phosphate, pH 8.0, 0.1 M NaCl, 20 mM imidazole and 1 mM phenylmethylsufonyl fluoride (PMSF). Cells were lysed with lysozyme (0.2 mg/mL of cells) on ice for 30 minutes followed by sonication on ice with 30s pulse (5×). Protein concentration was determined by Bradford assay (Bio-Rad). The AaDBR1 protein was detected by silver stain on SDS gel and confirmed by Western Blot using Anti-His antibody (Invitrogen). The AaALDH1 protein was detected by Rapid Stain (Bioscience, St. Louis, Mo.) on SDS gel. […]

In assay [2] the target is T2, recombinant AaALDH1 (Artemisia annua, UniProt C5I9X1).
T2 construct: made in house; host or cells: E. coli BL21(DE3)
Nature of the assay: Characterization of purified recombinant AaALDH1 (kinetic parameters, substrate specificity). The class given is biochemical. The conditions noted are these: for substrate for the recombinant AaALDH1: optimum assay conditions, substrate concentration at 10 times the estimated Km; for Km / Vmax: purified recombinant AaALDH1, 50 mM Tris-HCl buffer, pH 8.5, means of three independent experiments. As to the method:
Purification of Recombinant AaALDH1
Cell-free extract of recombinant AaALDH1 was prepared as described above. The cell-free extract was centrifuged at 20,000 g at 4° C. for 15 minutes to remove any remaining insoluble materials before loading onto a His-Trap FF column (Amersham Bioscience, N.J.) equilibrated with binding buffer (20 mM sodium phosphate buffer containing 500 mM NaCl and 20 mM imidazole at pH 7.5). The column was washed with 5 column volume of binding buffer and the recombinant AaALDH1 eluted with elution buffer (20 mM sodium phosphate, 500 mM NaCl, pH 7.5) containing increasing concentration of imidazole in a step-wise fashion. The eluted fractions were concentrated and desalted in centrifugal filter devices (Amicon Ultra—15) (Millipore, Mass.) following manufacturer's protocol. The purity of the recombinant AaALDH1 was checked with SDS gel stained with Rapid Stain (Biosciences, St. Louis, Mo.).
Characterization of Purified Recombinant AaALDH1
The linearity of the assay with respect to time and protein concentration was first established and the operational saturation of substrate and cofactor determined. The pH optimum was determined by the standard assay in 50 mM buffer (sodium phosphate, Tris-HCl and CHES) from pH 6.0 to 10.0 at 0.5 unit interval containing 1 mM NADP and 1.5 micrograms of the purified recombinant AaALDH1. Kinetic parameters were determined in 50 mM Tris-HCl buffer, pH 8.5 by varying the concentration of the substrates. Kinetic constants were determined by non-linear regression analysis using GraphPad software (GraphPad Software Inc. San Diego, Calif.) and the results presented are the means of three independent experiments. Substrates specificity was determined at optimum reaction conditions with substrates concentration at 10 times the estimated Km value. Substrates tested include artemisinic aldehyde, (11R)-dihydroartemisinic aldehyde, artemisinic alcohol, dihydroartemisinic alcohol, octanal, nonanal, 2-phenyl propionaldehyde, 3-cyclohexyl propionaldehyde, 2-hexen-1-al, syringaldehyde.

Assay [3] deals with Plasmodium falciparum. The following applies: more active than artesunate; cited from earlier work.
Assay [4] has as its system recombinant His-tagged AaDBR1. Put plainly: In vitro cell-free assay of recombinant His-tagged AaDBR1, GC/MS. The class given is biochemical, Artemisia annua. The conditions noted are these: E. coli cell-free extract, 1 mM NADPH, pH 7.5, 30 minutes at 30° C. The method, then: as §1

A word on the Km: it is the concentration of substrate that gives half-maximal velocity.

T2 sequence (C5I9X1 with tags, fused parts or gaps): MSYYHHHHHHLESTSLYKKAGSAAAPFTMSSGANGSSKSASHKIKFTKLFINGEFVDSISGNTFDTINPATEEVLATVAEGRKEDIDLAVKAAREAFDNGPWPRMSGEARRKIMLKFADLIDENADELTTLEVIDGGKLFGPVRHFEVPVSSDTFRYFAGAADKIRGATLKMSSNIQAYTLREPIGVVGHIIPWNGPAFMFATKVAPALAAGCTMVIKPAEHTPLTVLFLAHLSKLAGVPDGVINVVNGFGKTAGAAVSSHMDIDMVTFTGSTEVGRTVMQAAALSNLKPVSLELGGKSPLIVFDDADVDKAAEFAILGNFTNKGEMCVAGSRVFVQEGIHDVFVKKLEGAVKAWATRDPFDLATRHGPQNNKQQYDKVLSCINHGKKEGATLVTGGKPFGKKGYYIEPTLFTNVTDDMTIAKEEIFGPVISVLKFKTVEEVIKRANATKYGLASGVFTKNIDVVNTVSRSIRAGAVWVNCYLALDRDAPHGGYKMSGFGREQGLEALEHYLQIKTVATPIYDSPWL
T1 sequence (C5I9X1 with tags, fused parts or gaps): as above

For `CC1=C[C@H]2[C@@H](CC1)[C@H](C)CC[C@H]2[C@@H](C)C=O` [(11R)-dihydroartemisinic aldehyde], the “product formation by AaALDH1 cell-free extract (GC/MS, FIG. 11)” value in assay [1] was “NADP-dependent formation of dihydroartemisinic acid”. Besides, the “substrate for the recombinant AaALDH1” value in assay [2] is “found to be a substrate”.
For `C[C@H]1[C@H](N2CCS(=O)(=O)CC2)O[C@@H]2O[C@@]3(C)CC[C@H]4[C@H](C)CC[C@@H]1[C@@]24OO3` [Artemisone], the “activity relative to artesunate” value in assay [3] is listed as 10-30 fold.
As to `CC1=C[C@H]2[C@@H](CC1)[C@H](C)CC[C@H]2[C@@H](C)C(=O)O` [dihydroartemisinic acid], in assay [2], the Km is 8.79 µM and the Vmax was 143.8 pkat/μg protein.
For `C=C(C=O)[C@@H]1CC[C@@H](C)[C@@H]2CCC(C)=C[C@@H]21` [artemisinic aldehyde], the “product formation by AaDBR1 cell-free extract (GC/MS, FIG. 10)” value in assay [4] is “NADPH-dependent formation of (11S)-dihydroartemisinic aldehyde as the major product”. In assay [2], the “substrate for the recombinant AaALDH1” value is on record as “found to be a substrate”, the Km is 2.62 µM and the Vmax was determined as 28.6 pkat/μg protein.
